Data taken from US9695155B2, “Herbicidal substituted pyrimidinyloxy benzene compounds” (E. I. DU PONT DE NEMOURS AND COMPANY, priority 2013, dated 2017).

Assays:
[1] = system: barnyardgrass; experiment: Test A postemergence; assay type: in vivo, Echinochloa crus-galli; conditions: 1000 g ai/ha, 0 to 100 scale, 0 no effect, 100 complete control
Summary of the method: (§1)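 Greenhouse pot test, loam/sand soil. Formulation: non-phytotoxic solvent mix plus surfactant. Pre: directed spray onto soil after sowing. Post: plants at 1–2 leaf, 2–10 cm. Rated visually vs untreated controls at ~10 d, 0 (no effect) to 100 (complete control).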

[2] = system: soybean; experiment: Test C postemergence; assay type: in vivo, Glycine max; conditions: for Plant response rating (0 to 100), Soybean: 0 is no effect, 100 is complete control; for Soybean plant response rating: 31 g ai/ha; for Soybean plant response rating / Plant response rating, Soybean: scale 0 to 100 (0 no effect, 100 complete control)
Summary of the method: (§2)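 Visual injury score versus untreated controls, 0 = no effect, 100 = complete control, taken 13 to 15 days after treatment in the greenhouse. Pre-emergence pots held loam/sand; post-emergence plants grew in sphagnum peat/vermiculite mix and were sprayed at the 1- to 4-leaf stage.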

[3] = system: lambsquarters; experiment: Test C postemergence; assay type: in vivo, Chenopodium album; conditions: for Plant response rating (0 to 100), Lambsquarters: 0 is no effect, 100 is complete control; for Lambsquarters plant response rating: 31 g ai/ha; for Lambsquarters plant response rating / Plant response rating, Lambsquarters: scale 0 to 100 (0 no effect, 100 complete control)
Summary of the method: as §2

[4] = system: galium; experiment: Test C postemergence; assay type: in vivo, Galium aparine; conditions: for Plant response rating (0 to 100), Galium: 0 is no effect, 100 is complete control; for Galium plant response rating: 31 g ai/ha; for Galium plant response rating / Plant response rating, Galium: scale 0 to 100 (0 no effect, 100 complete control)
Summary of the method: as §2

[5] = system: blackgrass; experiment: Test C postemergence; assay type: in vivo, Alopecurus myosuroides; conditions: for Plant response rating (0 to 100), Blackgrass: 0 is no effect, 100 is complete control; for Blackgrass plant response rating: 31 g ai/ha; for Blackgrass plant response rating / Plant response rating, Blackgrass: scale 0 to 100 (0 no effect, 100 complete control)
Summary of the method: as §2

[6] = system: wheat; experiment: Test A postemergence; assay type: in vivo, Triticum aestivum; conditions: 1000 g ai/ha, 0 to 100 scale, 0 no effect, 100 complete control
Summary of the method: as §1

[7] = system: corn; experiment: Test A preemergence; assay type: in vivo, Zea mays; conditions: 1000 g ai/ha, 0 to 100 scale, 0 no effect, 100 complete control, approx. 10 days
Summary of the method: as §1

[8] = system: giant foxtail; experiment: Test C postemergence; assay type: in vivo, Setaria faberii; conditions: for Plant response rating (0 to 100), Foxtail, Giant: 0 is no effect, 100 is complete control; for Foxtail, Giant plant response rating: 31 g ai/ha; for Foxtail, Giant plant response rating / Plant response rating, Foxtail, Giant: scale 0 to 100 (0 no effect, 100 complete control)
Summary of the method: as §2

[9] = system: ragweed; experiment: Test C postemergence; assay type: in vivo, Ambrosia elatior; conditions: for Plant response rating (0 to 100), Ragweed: 0 is no effect, 100 is complete control; for Ragweed plant response rating: 31 g ai/ha; for Ragweed plant response rating / Plant response rating, Ragweed: scale 0 to 100 (0 no effect, 100 complete control)
Summary of the method: as §2

[10] = system: barnyardgrass; experiment: Test A preemergence; assay type: in vivo, Echinochloa crus-galli; conditions: 1000 g ai/ha, 0 to 100 scale, 0 no effect, 100 complete control, approx. 10 days
Summary of the method: as §1

[11] = system: velvetleaf; experiment: Test C postemergence; assay type: in vivo, Abutilon theophrasti; conditions: for Plant response rating (0 to 100), Velvetleaf: 0 is no effect, 100 is complete control; for Velvetleaf plant response rating: 31 g ai/ha; for Velvetleaf plant response rating / Plant response rating, Velvetleaf: scale 0 to 100 (0 no effect, 100 complete control)
Summary of the method: as §2

[12] = postemergence, visual rating, 13 to 15 days
[13] = Postemergence, 62 g ai/ha, 13 to 15 days
[14] = 125 g ai/ha, postemergence, visual rating

SMILES	Plant response rating, Barnyardgrass [1]	Plant response rating (0 to 100), Soybean ([2]; 16 g ai/ha, postemergence)	Soybean plant response rating [2, 12]	Plant response rating, Soybean [2, 13]	Plant response rating (0 to 100), Lambsquarters ([3]; 16 g ai/ha, postemergence)	Lambsquarters plant response rating [3, 12]	Plant response rating, Lambsquarters [3, 13]	Plant response rating (0 to 100), Galium ([4]; 16 g ai/ha, postemergence)	Galium plant response rating [4, 12]	Plant response rating, Galium [4, 13]	Plant response rating (0 to 100), Blackgrass ([5]; 16 g ai/ha, postemergence)	Blackgrass plant response rating [5, 12]	Plant response rating, Blackgrass [5, 13]	Plant response rating, Wheat [6]	Corn plant response rating [7]	Plant response rating (0 to 100), Foxtail, Giant ([8]; 16 g ai/ha, postemergence)	Foxtail, Giant plant response rating [8, 12]	Plant response rating, Foxtail, Giant [8, 13]	Plant response rating (0 to 100), Ragweed ([9]; 16 g ai/ha, postemergence)	Ragweed plant response rating [9, 12]	further results
Clc1cnc(Oc2ccccc2-n2cc(I)nn2)nc1 [Compound 222]	100	55	65	60	65	65	75	70	85	85	5	30	60	40	60	5	5	5	40	45	Plant response rating (0 to 100), Soybean ([2]; 8 g ai/ha, postemergence): 40; Plant response rating (0 to 100), Lambsquarters ([3]; 8 g ai/ha, postemergence): 50; Plant response rating (0 to 100), Galium ([4]; 8 g ai/ha, postemergence): 65; Plant response rating (0 to 100), Blackgrass ([5]; 8 g ai/ha, postemergence): 0; Plant response rating (0 to 100), Foxtail, Giant ([8]; 8 g ai/ha, postemergence): 0; Plant response rating (0 to 100), Ragweed ([9]; 8 g ai/ha, postemergence): 20; Plant response rating, Ragweed [9, 13]: 60; Barnyardgrass plant response rating [10]: 100; Plant response rating (0 to 100), Velvetleaf ([11]; 8 g ai/ha, postemergence): 35; Plant response rating (0 to 100), Velvetleaf ([11]; 16 g ai/ha, postemergence): 40; Velvetleaf plant response rating [11, 12]: 35; Plant response rating, Velvetleaf [11, 13]: 50
Clc1cnc(Oc2ccccc2-n2cc(Br)nn2)nc1 [Compound 223]	100	60	65	85	60	75	75	75	80	80	0	30	5	70	80	5	5	5	10	20	Plant response rating, Soybean [2, 14]: 95; Plant response rating, Lambsquarters [3, 14]: 95; Plant response rating, Galium [4, 14]: 100; Plant response rating, Blackgrass [5, 14]: 0; Plant response rating, Foxtail, Giant [8, 14]: 5; Plant response rating, Ragweed [9, 14]: 75; Plant response rating, Ragweed [9, 13]: 55; Barnyardgrass plant response rating [10]: 100; Plant response rating (0 to 100), Velvetleaf ([11]; 16 g ai/ha, postemergence): 30; Velvetleaf plant response rating [11, 12]: 55; Plant response rating, Velvetleaf [11, 14]: 90; Plant response rating, Velvetleaf [11, 13]: 80
